Test results reported in US11213032B2, “Insecticidal compounds” (SYNGENTA PARTICIPATIONS AG, priority 2017, dated 2022).

Assays:
Type in all cases: in vivo
[1] = test system: Myzus persicae (Green Peach Aphid); test: Myzus persicae (green peach aphid) feeding/contact activity; conditions: 144 h, mixed ages, 6 days after infestation
Description: Myzus persicae (Green Peach Aphid): Feeding/Contact Activity
(§1) Sunflower leaf discs were placed onto agar in a 24-well microtiter plate and sprayed with aqueous test solutions prepared from 10,000 ppm DMSO stock solutions. After drying, the leaf discs were infested with an aphid population of mixed ages. The samples were assessed for mortality 6 days after infestation.

[2] = test system: Tetranychus urticae (Two-Spotted Spider Mite); test: whole plant or invertebrate; conditions: 192 h
Description: Tetranychus urticae (Two-Spotted Spider Mite): Feeding/Contact Activity
Bean leaf discs on agar in 24-well microtiter plates were sprayed with aqueous test solutions prepared from 10,000 ppm DMSO stock solutions. After drying the leaf discs were infested with a mite population of mixed ages. The samples were assessed for mortality on mixed population (mobile stages) 8 days after infestation.

[3] = test system: Diabrotica balteata (Corn Root Worm); test: Diabrotica balteata (corn root worm) on maize sprouts, spray; conditions: 96 h, L2 larvae, 4 days after infestation, read-out: effect in at least one of the two categories (mortality or growth inhibition)
Description: Diabrotica balteata (Corn Root Worm)
Maize sprouts placed onto an agar layer in 24-well microtiter plates were treated with aqueous test solutions prepared from 10,000 ppm DMSO stock solutions by spraying. After drying, the plates were infested with L2 larvae (6 to 10 per well). The samples were assessed for mortality and growth inhibition in comparison to untreated samples 4 days after infestation.

[4] = test system: Euschistus heros (Neotropical Brown Stink Bug); test: Euschistus heros (neotropical brown stink bug) on soybean leaves, spray; conditions: 120 h, N2 nymphs, 5 days after infestation, read-out: effect in at least one of the two categories (mortality or growth inhibition)
Description: Euschistus heros (Neotropical Brown Stink Bug)
Soybean leaves on agar in 24-well microtiter plates were sprayed with aqueous test solutions prepared from 10,000 ppm DMSO stock solutions. After drying the leaves were infested with N2 nymphs. The samples were assessed for mortality and growth inhibition in comparison to untreated samples 5 days after infestation.

[5] = test system: Spodoptera littoralis (Egyptian Cotton Leaf Worm); test: Spodoptera littoralis (Egyptian cotton leaf worm) on cotton leaf discs; conditions: foliar, 72 h, L1 larvae, 3 days after infestation
Description: Spodoptera littoralis (Egyptian Cotton Leaf Worm)
Cotton leaf discs were placed onto agar in 24-well microtiter plates and sprayed with aqueous test solutions prepared from 10,000 ppm DMSO stock solutions. After drying the leaf discs were infested with five L1 larvae. The samples were assessed for mortality, anti-feeding effect, and growth inhibition in comparison to untreated samples 3 days after infestation. Control of Spodoptera littoralis by a test sample is given when at least one of the categories mortality, anti-feedant effect, and growth inhibition is higher than the untreated sample.

[6] = test system: Thrips tabaci (Onion thrips); test: Thrips tabaci (onion thrips) feeding/contact activity; conditions: 144 h, mixed ages, 6 days after infestation
Description: Thrips tabaci (Onion thrips) Feeding/Contact Activity
as §1, with “on” for “onto”, “in” for “in a”, “plates” for “plate”, “drying” for “drying,”, “a thrips” for “an aphid”

[7] = test system: Plutella xylostella (Diamond Back Moth); test: Plutella xylostella (diamond back moth) feeding/contact activity; conditions: 120 h, L2 larvae, artificial diet, 5 days after infestation
Description: Plutella xylostella (Diamond Back Moth): Feeding/Contact Activity
24-well microtiter plates with artificial diet were treated with aqueous test solutions prepared from 10,000 ppm DMSO stock solutions by pipetting. After drying, the plates were infested with L2 larvae (10 to 15 per well). The samples were assessed for mortality 5 days after infestation.

CCOC1=NOC(NC(=O)c2ccc(C3=NS[C@](c4cc(Cl)cc(Cl)c4)(C(F)(F)F)C3)cc2C)C1 (stereo partly drawn) [Compound A01, 4-[(5R)-5-(3,5-dichlorophenyl)-5-(trifluoromethyl)-4H-isothiazol-3-yl]-N-(3-ethoxy-4,5-dihydroisoxazol-5-yl)-2-methyl-benzamide]
≥ 80%: mortality at 200 ppm [1] | mortality at 200 ppm [2] | percent effect (mortality or growth inhibition) at 200 ppm [3] | percent effect (mortality or growth inhibition) at 200 ppm [4] | percent control (mortality, anti-feedant effect or growth inhibition) at 200 ppm [5] | mortality at 200 ppm [6] | mortality at 200 ppm [7]

CCOC1=NOC(NC(=O)c2ccc(N3CCC(c4cc(Cl)cc(Cl)c4)(C(F)(F)F)C3)cc2C)C1 (stereo not shown) [Compound A02, 4-[3-(3,5-dichlorophenyl)-3-(trifluoromethyl)pyrrolidin-1-yl]-N-(3-ethoxy-4,5-dihydroisoxazol-5-yl)-2-methyl-benzamide]
≥ 80%: mortality at 200 ppm [2] | percent effect (mortality or growth inhibition) at 200 ppm [3] | percent effect (mortality or growth inhibition) at 200 ppm [4] | percent control (mortality, anti-feedant effect or growth inhibition) at 200 ppm [5] | mortality at 200 ppm [6] | mortality at 200 ppm [7]
